In the supplement of paper PMC10307832:

Key:
Assay in all cases: relative viability (nuclei count vs DMSO), 5 days (fraction); higher = more cells survive
[1] = system: NCI-H2009
How it was run: (§1)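 A single step with final 0.05% Triton X-100, 1% formaldehyde and 1 ug/ml Hoechst fixed the cells and stained nuclei 5 days after treatment. Lung cancer cell lines in 1536-well plates had been treated by pin tool the day after seeding with one drug alone or a fixed anchor-drug dose plus five library-drug doses (not always all listed) in √10 steps, and nuclei were counted on 4× images. Relative viability is the ratio of nuclei in treated wells to nuclei in vehicle wells, taken as the median of duplicate plates.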

[2] = system: NCI-H661
How it was run: as §1

[3] = system: NCI-H1648
How it was run: as §1

[4] = system: NCI-H2342
How it was run: as §1

[5] = system: HCC-78
How it was run: as §1

[6] = system: NCI-H460
How it was run: as §1

[7] = system: A549
How it was run: as §1

[8] = system: NCI-H522
How it was run: as §1

[9] = system: IA-LM
How it was run: as §1

For `CCN(CC)CCCCNc1ncc2cc(-c3cc(OC)cc(OC)c3)c(NC(=O)NC(C)(C)C)nc2n1` + Nc1ncn([C@H]2C[C@H](O)[C@@H](CO)O2)c(=O)n1 [Decitabine] (partner 2 µM), the relative viability ([1]; first compound 0.01 µM) was 0.401, the relative viability ([1]; first compound 0.03162 µM) was 0.39 and the relative viability ([1]; first compound 0.1 µM) was 0.35. It also gave a relative viability ([1]; first compound 0.3162 µM) of 0.387, a relative viability ([1]; first compound 1 µM) of 0.365 and a relative viability ([2]; first compound 0.01 µM) of 0.534. The relative viability ([2]; first compound 0.03162 µM) was 0.529, the relative viability ([2]; first compound 0.1 µM) was 0.572 and the relative viability ([2]; first compound 0.3162 µM) was 0.573. It also gave a relative viability ([2]; first compound 1 µM) of 0.455, a relative viability ([3]; first compound 0.01 µM) of 0.407 and a relative viability ([3]; first compound 0.03162 µM) of 0.565. For the same molecule, the relative viability ([3]; first compound 0.1 µM) was 0.499, the relative viability ([3]; first compound 0.3162 µM) was 0.417 and the relative viability ([3]; first compound 1 µM) was 0.383. For the same molecule, the relative viability ([4]; first compound 0.01 µM) was 0.692, the relative viability ([4]; first compound 0.03162 µM) was 0.668 and the relative viability ([4]; first compound 0.1 µM) was 0.697. For the same molecule, the relative viability ([4]; first compound 0.3162 µM) was 0.781, the relative viability ([4]; first compound 1 µM) was 0.807 and the relative viability ([5]; first compound 0.01 µM) was 0.697. The relative viability ([5]; first compound 0.03162 µM) was 0.769, the relative viability ([5]; first compound 0.1 µM) was 0.683 and the relative viability ([5]; first compound 0.3162 µM) was 0.666. It also gave a relative viability ([5]; first compound 1 µM) of 0.636, a relative viability ([6]; first compound 0.01 µM) of 0.505 and a relative viability ([6]; first compound 0.03162 µM) of 0.591. For the same molecule, the relative viability ([6]; first compound 0.1 µM) was 0.645, the relative viability ([6]; first compound 0.3162 µM) was 0.584 and the relative viability ([6]; first compound 1 µM) was 0.412. For the same molecule, the relative viability ([7]; first compound 0.01 µM) was 0.27, the relative viability ([7]; first compound 0.03162 µM) was 0.27 and the relative viability ([7]; first compound 0.1 µM) was 0.312. The relative viability ([7]; first compound 0.3162 µM) was 0.212, the relative viability ([7]; first compound 1 µM) was 0.288 and the relative viability ([8]; first compound 0.01 µM) was 0.625. It also gave a relative viability ([8]; first compound 0.03162 µM) of 0.573, a relative viability ([8]; first compound 0.1 µM) of 0.748 and a relative viability ([8]; first compound 0.3162 µM) of 0.651. It also gave a relative viability ([8]; first compound 1 µM) of 0.548.

`O=c1cc(-c2cccc3c2Sc2ccccc2S3)oc(N2CCOCC2)c1` + O=C(CCCCCCC(=O)Nc1ccccc1)NO [Vorinostat] (partner 1 µM) gave a relative viability ([1]; first compound 0.08 µM) of 0.761, a relative viability ([1]; first compound 0.253 µM) of 0.751 and a relative viability ([1]; first compound 0.8 µM) of 0.667. For the same molecule, the relative viability ([1]; first compound 2.53 µM) was 0.684, the relative viability ([1]; first compound 8 µM) was 0.699 and the relative viability ([2]; first compound 0.08 µM) was 0.801. For the same molecule, the relative viability ([2]; first compound 0.253 µM) was 0.808, the relative viability ([2]; first compound 0.8 µM) was 0.807 and the relative viability ([2]; first compound 2.53 µM) was 0.734. The relative viability ([2]; first compound 8 µM) was 0.789, the relative viability ([3]; first compound 0.253 µM) was 0.468 and the relative viability ([3]; first compound 0.8 µM) was 0.65. It also gave a relative viability ([3]; first compound 8 µM) of 0.457, a relative viability ([9]; first compound 0.253 µM) of 1.31 and a relative viability ([9]; first compound 0.8 µM) of 0.966. The relative viability ([9]; first compound 2.53 µM) was 0.863, the relative viability ([9]; first compound 8 µM) was 1.08 and the relative viability ([4]; first compound 0.08 µM) was 0.752. It also gave a relative viability ([4]; first compound 0.253 µM) of 0.831, a relative viability ([4]; first compound 0.8 µM) of 0.8 and a relative viability ([4]; first compound 2.53 µM) of 0.691. It also gave a relative viability ([4]; first compound 8 µM) of 0.699, a relative viability ([5]; first compound 0.08 µM) of 0.478 and a relative viability ([5]; first compound 0.253 µM) of 0.529. For the same molecule, the relative viability ([5]; first compound 0.8 µM) was 0.376, the relative viability ([5]; first compound 2.53 µM) was 0.39 and the relative viability ([5]; first compound 8 µM) was 0.474. It also gave a relative viability ([6]; first compound 0.08 µM) of 0.892, a relative viability ([6]; first compound 0.253 µM) of 1.49 and a relative viability ([6]; first compound 0.8 µM) of 0.772. The relative viability ([6]; first compound 2.53 µM) was 0.692, the relative viability ([6]; first compound 8 µM) was 1.04 and the relative viability ([8]; first compound 0.08 µM) was 0.952. For the same molecule, the relative viability ([8]; first compound 0.253 µM) was 0.909, the relative viability ([8]; first compound 0.8 µM) was 0.811 and the relative viability ([8]; first compound 2.53 µM) was 0.736. It also gave a relative viability ([8]; first compound 8 µM) of 1.

`COc1nc(C)cnc1NS(=O)(=O)c1cccnc1-c1ccc(-c2nnco2)cc1` [Zibotentan] + Nc1ncn([C@H]2C[C@H](O)[C@@H](CO)O2)c(=O)n1 [Decitabine] (partner 2 µM) was tested, and the relative viability ([1]; first compound 0.08 µM) was 0.404, the relative viability ([1]; first compound 0.253 µM) was 0.398 and the relative viability ([1]; first compound 0.8 µM) was 0.417. The relative viability ([1]; first compound 2.53 µM) was 0.377, the relative viability ([2]; first compound 0.08 µM) was 0.557 and the relative viability ([2]; first compound 0.253 µM) was 0.529. For the same molecule, the relative viability ([2]; first compound 0.8 µM) was 0.57, the relative viability ([2]; first compound 2.53 µM) was 0.552 and the relative viability ([3]; first compound 0.08 µM) was 0.544. The relative viability ([3]; first compound 0.253 µM) was 0.464, the relative viability ([3]; first compound 0.8 µM) was 0.519 and the relative viability ([3]; first compound 2.53 µM) was 0.461. It also gave a relative viability ([4]; first compound 0.08 µM) of 0.659, a relative viability ([4]; first compound 0.253 µM) of 0.776 and a relative viability ([4]; first compound 0.8 µM) of 0.707. For the same molecule, the relative viability ([4]; first compound 2.53 µM) was 0.71, the relative viability ([5]; first compound 0.08 µM) was 0.795 and the relative viability ([5]; first compound 0.253 µM) was 0.564. The relative viability ([5]; first compound 0.8 µM) was 0.68, the relative viability ([5]; first compound 2.53 µM) was 0.656 and the relative viability ([6]; first compound 0.08 µM) was 0.444. The relative viability ([6]; first compound 0.253 µM) was 0.287, the relative viability ([6]; first compound 0.8 µM) was 0.464 and the relative viability ([6]; first compound 2.53 µM) was 0.509. The relative viability ([7]; first compound 0.08 µM) was 0.232, the relative viability ([7]; first compound 0.253 µM) was 0.266 and the relative viability ([7]; first compound 0.8 µM) was 0.305. It also gave a relative viability ([7]; first compound 2.53 µM) of 0.285, a relative viability ([8]; first compound 0.08 µM) of 0.677 and a relative viability ([8]; first compound 0.253 µM) of 0.5. The relative viability ([8]; first compound 0.8 µM) was 0.718 and the relative viability ([8]; first compound 2.53 µM) was 0.756.
